# Results as given in US4173641A, “Di-O-n-alkyl glycerol derivatives as immune stimulants” (priority 1978, dated 1979).
# Several values for one entry are separate records, joined by “and”; a condition that tells them apart may be missing. Equal entries are not always repeated. Structures can show the parent of a compound that is named as a salt. Where two headings read alike, the source gives them in different places.
# Assays:
# [1] = system: S-180J cells (sarcoma 180J); assay: Sarcoma 180J model for assessment of tumor rejection; type: in vivo, female CD-1 mice; settings: for number of 40 day survivors: six mice per group
# Procedure: Six female CD-1 mice (20-25 g) per group received 10^6 S-180J cells which were 5 to 8 days old by intraperitoneal administration. On the day following tumor innoculation the mice received 0.1 ml of the test compound formulated in the fat emulsion vehicle Intralipid (Cutter Laboratories) at the desired dose and were then observed until death or 40 days, whichever occurs first. Results are expressed as increased percent life span (%ILS), defined as follows: [formula] Results obtained by the above test procedure were as follows:
# Results of the above test obtained with (1-hydroxy-2-alkylamino ethyl)-benzyloxy analogs of this invention formulated in Tween 80-glycerol-water are shown in Table 2.
# (Numbers in parentheses in Tables 1 and 2 above are the number
# [2] = in vivo; set-up: species or system mice and rats; settings: read-out: therapeutic index
# Excerpt: The compounds may be used in pharmaceutical preparations containing the compound or a pharmaceutically acceptable salt thereof in combination with a pharmaceutically acceptable carrier or diluent. A particularly preferred type of pharmaceutical carrier for this purpose is a sterile fat or lipid emulsion vehicle. […] Such advantages have been reported for other compounds used with such fat emulsion vehicles, see for example Fortner, et al., American Journal of Hospital Pharmacy, 32, 502 (1975) and Jeppsson, et al., First International Conference on Pharmaceutical technology, Faculty of Pharmacy, Paris-Sud, June 1977. An example of a particularly suitable vehicle is Intralipid (Cutter Laboratories, Berkeley, California), a 10% fat emulsion, based on soybean oil. However, other similar vehicles would be suitable and may be readily prepared by those skilled in the art.
# [3] = system: L 1210 cells / peritoneal macrophages; assay: Assessment of peritoneal macrophage activation (inhibition of DNA synthesis in L 1210 cells); type: in vivo, mice; settings: Mus musculus, L1210, ip, intraperitoneal, macrophages harvested 72 hours later
# Procedure: (§1) Mice were injected intraperitoneally with saline or the test compound. Macrophages were harvested 72 hours later by intraperitoneal injection of 3 ml 8% fetal calf serum-- 92% RPMI 1640 medium (Grand Island Biological Co., N.Y.) (164092 FCS8) plus 5 units/ml of heparin, the temperature of all media being kept at 37° C., lavaged 1 to 2 minutes, opened and all peritoneal fluid drawn off with a sterile, siliconized pipet into a 50 ml plastic tube kept in ice. The macrophages were counted using a hemocytometer and adjusted to a concentration of 1.5×10^6 /ml with 164092 FCS8. The cells were then placed in multiwell plates, 1.5×10^6 cells per well, and incubated for 1 to 2 hours at 37° C. in a 5% carbon dioxide atmosphere. The supernate was discarded and the cells were washed once with media, the macrophages adhering to the bottom of the wells. L 1210 cells (harvested from ascites of DBA mice approximately 5 days after innoculation) in 164092 FCS8 were then added, 1 ml of 1×10^5 cells/ml to each well and incubated at 37° C. for 24 to 30 hours in a 5% carbon dioxide atmosphere. The cells were then pulsed with ^3 H-Tdr (1.0μCi/ml; Amersham/Searles) for 6 hours at 37° C., the supernate drawn off using a cell harvester: Reeve-Angel filter, and washed five times with saline. The filter discs were allowed to dry and placed in scintillation vials with LSC scintillation fluid (5.0 g PPO and 0.2 g POPOP/liter toluene; Yorktown Research). Counting was done for 2 minutes using a Beekman LS-250 β-counter.
# [4] = system: L1210 cells / peripheral blood monocytes; assay: Assessment of peripheral blood monocyte activation (inhibition of DNA synthesis in L1210 cells); type: in vivo, rats; settings: Rattus norvegicus, intravenous, monocytes harvested 72 hours later, Effector:Target ratio 15:1
# Procedure: as §1, with “The cells were then pulsed with ^3 H-Tdr (1.0μCi/ml; Amersham/Searles) for 6 hours at 37° C., the supernate drawn off using a cell harvester: Reeve-Angel filter, and washed five times with saline. The filter discs were allowed to dry and placed in scintillation vials with LSC scintillation fluid (5.0 g PPO and 0.2 g POPOP/liter toluene; Yorktown Research). Counting was done for 2 minutes using a Beekman LS-250 β-counter.” left out
# Rats were injected intravenously with the test compound, or with saline for control animals. […] Following the procedure described in Example 13 the cells were pulsed with ^3 H-Tdr and counted with a scintillation counter.
# [5] = system: Influenza virus; assay: Vaccine adjuvanticity - hemagglutination inhibition test; type: in vivo, Hartley female guinea pigs (vaccinated); influenza virus; settings: for Hemagglutination Titer: compound (5 mg) with Fluogen, individual animal
# [6] = 5 mg/kg, Tween 80-glycerol-water
# [7] = 15 mg/kg, Tween 80-glycerol-water
# [8] = 50 mg/kg, Tween 80-glycerol-water
# [9] = 0.25 mg/kg, fat emulsion vehicle Intralipid
# [10] = 1 mg/kg, fat emulsion vehicle Intralipid
# [11] = 4 mg/kg, fat emulsion vehicle Intralipid
# [12] = 16 mg/kg, fat emulsion vehicle Intralipid
compound,measurement,setting,value
"CCCCCCCCCCCCCCCCOCC(COCCCCCCCCCCCCCCCC)OCc1cccc(C(O)CNC(C)(C)C)c1 (stereo not drawn) [C(CH3)3 1,3]",%ILS (increased percent life span),[1]; [6],159%
same,number of 40 day survivors,[1]; [6],1
same,%ILS (increased percent life span),[1]; [7],171%
same,number of 40 day survivors,[1]; [7],3
same,%ILS (increased percent life span),[1]; [8],157%
same,number of 40 day survivors,[1]; [8],2
"CCCCCCCCCCCCCCCCOCC(COCc1cccc(C(O)CNC(C)(C)C)c1)OCCCCCCCCCCCCCCCC.Cl (stereo not drawn) [C(CH3)3 2,3, 1,2-Di-O-(n-hexadecyl)-3-O-[3-(1-hydroxy-2-t-butylaminoethyl)benzyl]-glycerol hydrochloride]",%ILS (increased percent life span),[1]; [6],166%
same,number of 40 day survivors,[1]; [6],2
same,%ILS (increased percent life span),[1]; [7],181%
same,number of 40 day survivors,[1]; [7],4
same,%ILS (increased percent life span),[1]; [8],182%
same,number of 40 day survivors,[1]; [8],4
"CCCCCCCCCCCCCCCCOCC(COCc1cccc(C(O)CNC(C)C)c1)OCCCCCCCCCCCCCCCC (stereo not drawn) [CH(CH3)2 2,3]",%ILS (increased percent life span),[1]; [6],174%
same,number of 40 day survivors,[1]; [6],1
same,%ILS (increased percent life span),[1]; [7],135%
same,%ILS (increased percent life span),[1]; [8],147%
same,number of 40 day survivors,[1]; [8],1
CCCCCCCCOCC(CN1CCC(CN)(c2ccccc2)CC1)OCCCCCCCC (stereo not drawn) [n-C8 H17],%ILS (increased percent life span),[1]; [9],113%
same,%ILS (increased percent life span),[1]; [10],109%
same,number of 40 day survivors,"[1]; 4 mg/kg, Intralipid",1
same,%ILS (increased percent life span),[1]; [11],154%
same,number of 40 day survivors,"[1]; 16 mg/kg, Intralipid",4
same,%ILS (increased percent life span),[1]; [12],192%
same,selectivity ratio,[2]; Tween 80-glycerol-water formulations,~3
same,selectivity ratio,"[2]; sterile fat or lipid emulsion vehicle, parenteral and intravenous",15 to 25
"CCCCCCCCCCOCC(CN1CCC(CN)(c2ccccc2)CC1)OCCCCCCCCCC (stereo not drawn) [n-C10 H21, 4-Aminomethyl-1-[2,3-(di-n-decyloxy)-n-propyl]-4-phenylpiperidine]",inhibition at 0.313 mg/kg,[3]; 0.313 mg/kg,56%
same,inhibition at 0.625 mg/kg,[3]; 0.625 mg/kg,94%
same,inhibition at 1.25 mg/kg,[3]; 1.25 mg/kg,76%
same,inhibition at 1.25 mg/kg,[4],80%
same,%ILS (increased percent life span),[1]; [9],127%
same,number of 40 day survivors,"[1]; 1 mg/kg, Intralipid",1
same,%ILS (increased percent life span),[1]; [10],139%
same,%ILS (increased percent life span),[1]; [11],110%
same,%ILS (increased percent life span),[1]; [12],108%
same,Hemagglutination Titer,[5]; day 15 after primary sensitization,10 and 0
same,Hemagglutination Titer,[5]; day 30 after primary sensitization (rechallenge day),10 and 40 and 20 and 0
same,Hemagglutination Titer,"[5]; day 44 after primary sensitization, rechallenged at 30 days",80 and 640 and 10 and 40
same,Hemagglutination Titer,"[5]; day 65 after primary sensitization, rechallenged at 30 days",1280 and 2560 and 160 and 20 and 10
same,hemagglutination titer observed after rechallenge (adjuvant activity),"[5]; compound with Fluogen, in words",higher hemagglutination titer observed after rechallenge
CCCCCCCCCCCCCCOCC(CN1CCC(CN)(c2ccccc2)CC1)OCCCCCCCCCCCCCC (stereo not drawn) [n-C14 H29],inhibition at 25 mg/kg,[3]; 25 mg/kg,90%
same,number of 40 day survivors,"[1]; 0.25 mg/kg, Intralipid",1
same,%ILS (increased percent life span),[1]; [9],129%
same,%ILS (increased percent life span),[1]; [10],116%
same,%ILS (increased percent life span),[1]; [11],133%
same,%ILS (increased percent life span),[1]; [12],109%
"CCCCCCCCCCCCCCCCOCC(CN1CCC(CN)(c2ccccc2)CC1)OCCCCCCCCCCCCCCCC (stereo not drawn) [n-C16 H33, 4-Aminomethyl-1-[2,3-(di-n-hexadecyloxy)-n-propyl]-4-phenylpiperidine Dihydrochloride]",%ILS (increased percent life span),[1]; [9],110%
same,%ILS (increased percent life span),[1]; [10],105%
same,%ILS (increased percent life span),[1]; [11],104%
same,%ILS (increased percent life span),[1]; [12],127%
CCCCCCCCCCCCCCCCCCOCC(CN1CCC(CN)(c2ccccc2)CC1)OCCCCCCCCCCCCCCCCCC (stereo not drawn) [n-C18 H37],%ILS (increased percent life span),[1]; [9],119%
same,number of 40 day survivors,"[1]; 1 mg/kg, Intralipid",2
same,%ILS (increased percent life span),[1]; [10],158%
same,%ILS (increased percent life span),[1]; [11],98%
same,%ILS (increased percent life span),[1]; [12],109%
